Data set [1] can be described thus: Thermo-rheometer viscosity of WITC (PCL), unplasticized or blended with plasticizing agents / premixes. Type of data set: physicochemical. The method, then: Thermo-rheometer: Thermo Scientific (Germany) Haake Mars III, with a C20/1° spindle, a gap of 0.052 mm, and a shear rate of 10 sec^−1. […]
Samples corresponding to the above-described premixes were additionally tested for their viscosity at the end of the mixing step, when the WITCs were at least homogeneously blended with the polar-carrier-insoluble materials, and in most case plasticized by the non-volatile liquids if present. Viscosity was determined as previously described at a shear rate of 10 sec^−1 over a range of temperatures between 20° C. and 80° C., and for all samples so tested the viscosity as measured at 50° C. was typically found to be of less than 10^6 mPa·s, being generally between 10^3 mPa·s and 10^5 mPa·s, often not exceeding 5×10^4 mPa·s, and many samples even having a viscosity of less 10^4 mPa·s.
In a first series of experiments, the viscosity was measured on blends of materials forming a homogeneous mass adapted for nano-sizing by the present methods. PCL and a non-volatile liquid or a fatty amine serving as SFA at various weight per weight ratios were combined in a glass vial and the sealed vials were placed in an oven pre-heated to 80° C. The PCL: non-volatile liquid ratios tested were 1:1 and 1:2.33 and the PCL: fatty amine ratios tested were 1:0.1, 1:0.33, 1:0.5 and 1:1. Following 1 hour of incubation under heat, the contents of the vials were mixed by hand for about 30 seconds, until clear solutions were obtained. The samples were allowed to cool down overnight (i.e., at least 12 hours) at room temperature so as to solidify.
Solid samples were then transferred to a rheometer where their respective viscosity was measured as a function of temperature between room temperature and 70° C. at a ramping up temperature of 10° C./min. The viscosities (or 2nd viscosities) of the samples as measured at 50° C. and 70° C. are summarized in Table 2-II(A), including in the first row the first viscosities of a reference sample made of PCL alone, unplasticized, under same conditions.

The nature of data set [2]: Pharmacokinetic study of tadalafil in plasma after oral administration. Type of data set: in vivo, rats (Sprague Dawley). Conditions: rats. The protocol:
The following pharmacokinetic (PK) study was conducted to determine the efficacy of a composition according to the present teachings, following its oral administration to rats.
Nine young adult healthy rats (Sprague Dawley), having an initial mean body weight of about 243.1 +1.8 g, were used in this study. They were individually tail marked and housed within a limited access caged rodent facility. The rats were randomly divided into groups of 3, and were kept with their groups in cages, in a controlled environment at a temperature of 17-23° C., with a relative humidity (RH) of 30-70%, a 12:12 hour light:dark cycle and 15 air changes/h in the study room. […]
Nano-dispersion ND39, as listed in Table 5-II, was used as the tested composition. ND39 contains tadalafil as the polar-carrier insoluble active agent present in the core of the nano-elements, and its concentration in the rats' blood was monitored. […]
The plasma samples were combined with acetone, allowing the dissolution of the nano-elements and making the tadalafil available for measuring, followed by centrifugation whereby plasma proteins were precipitated. The obtained supernatant was removed and analyzed by LC-MS/MS vs. a tadalafil calibration curve prepared in advance, in the range of 1 ng/ml to 10 ug/ml. […]

The mark [3] stands for this setting: PCL:plasticizing agent w/w ratio 1:1.
The mark [4] stands for this setting: PCL:plasticizing agent w/w ratio 1:2.33.
The mark [5] stands for this setting: PCL:plasticizing agent w/w ratio 1:0.33.
Setting [6] is: PCL:plasticizing agent w/w ratio 1:0.5.

Results on four compounds are retold here after patent publication US20250268840A1, “USE OF NANO-CARRIERS FOR DELIVERY OF ACTIVE AGENTS” (LANDA LABS (2012) LTD., priority 2022, published 2025).

Consider `CCCCOC(=O)CCCCC(=O)OCCCC` [Cetiol ® B, Dibutyl adipate], for which, in data set [1] (setting [3]), the “PCL 2nd viscosity at 50° C. [mPa · s]” value is 5.0 × 10^3 mPa · s and the “PCL 2nd viscosity at 70° C. [mPa · s]” value was 2.2 × 10^3 mPa · s. Further, in data set [1] (setting [4]), the “PCL 2nd viscosity at 50° C. [mPa · s]” value came out at 215 mPa · s and the “PCL 2nd viscosity at 70° C. [mPa · s]” value came out at 164 mPa · s.
On to `CCCCCCCC/C=C\CCCCCCCCN` [Oleyl amine], for which the “PCL 2nd viscosity at 50° C. [mPa · s]” value in data set [1] (setting [5]) is reported as 1.9 × 10^3 mPa · s; in data set [1] (setting [6]), 6.7 × 10^3 mPa · s. The “PCL 2nd viscosity at 70° C. [mPa · s]” value is listed as 1.7 × 10^3 mPa · s in data set [1] (setting [5]) and 4.4 × 10^3 mPa · s in data set [1] (setting [6]).
Consider `CN1CC(=O)N2[C@H](c3ccc4c(c3)OCO4)c3[nH]c4ccccc4c3C[C@@H]2C1=O` [Ref. T, Tadalafil], for which the “% CV of plasma tadalafil concentration, average for all time points” value in data set [2] (3 animals per time point) turned out to be 31.1%. For the same compound, the “AUC0-∞/D (area under curve zero to infinity normalized to dose of tadalafil)” value in data set [2] (ND39 about 16 mg/kg, Ref. C about 18.7 mg/kg, Ref. T about 18.1 mg/kg) is on record as “about 1,249 h.mg/ml”.
As to `CCCCCCCCN(CCCCCCCC)CCCCCCCC` [Trioctyl amine], in data set [1] (setting [3]), the “PCL 2nd viscosity at 50° C. [mPa · s]” value amounted to 544 mPa · s and the “PCL 2nd viscosity at 70° C. [mPa · s]” value was 279 mPa · s.
